Assay: Autohydrolysis of ε-CL (pH-STAT titration)
Assay type: physicochemical
Details: Distilled water (pH 7.0), 30 °C, based on 100 mM ε-CL as 100 %
Protocol: All measurements were done with the 877 Titrino Plus from Metrohm (Filderstadt, Germany).
Using the pH-STAT, the autohydrolysis of ε-CL at different temperatures and pH values was determined. Furthermore, it was investigated whether CAL-A is able to hydrolyze ε-CL in an aqueous reaction system. The Bacillus subtilis esterase 2 (BS2) served as positive control in the hydrolysis of ε-caprolactone to 6-hydroxycaproic acid leading to a measureable pH change in the pH-STAT.
For the determination of autohydrolysis, 100 mM ε-CL (Sigma-Aldrich, St- Louis, United States; 97 % purity) were dissolved in 20 ml Tris-HCl buffer (20 mM, pH 7.5) or 20 ml distilled water. The measurement was carried out at 25°C and 30°C over 15 min. For titration, 0.1 N NaOH was used to maintain the pH value constant.

Compound: O=C1CCCCCO1 [ε-CL, ε-caprolactone]
- Conversion [%] (autohydrolysis): 1.075 ± 0,00090%

Reference: EP2899280A1, “Process for the enzymatic production of oligo-/polyesters” (Ernst-Moritz-Arndt-Universität Greifswald, priority 2014, dated 2015)
